ChEMBL document CHEMBL1201862, “PubChem BioAssay data set” (2004)
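Each compound was tested at five concentrations against cells in 96-well plates for 48 hours. Abbreviation: GI50, concentration required for 50% inhibition of growth.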 Calls of active or inactive are those of the source. Rule as the data show it: active = GI50 up to about 1.1 µM and inactive = higher.

Experiments:
Test in all cases: NCI tumour cell line growth inhibition, 48 h
A498 = test system: A498
SK-MEL-28 = test system: SK-MEL-28
A549 = test system: A549
M14 = test system: M14
SF-295 = test system: SF-295
KM12 = test system: KM12
HOP-92 = test system: HOP-92
SK-OV-3 = test system: SK-OV-3
OVCAR-5 = test system: OVCAR-5
ACHN = test system: ACHN
NCI-H460 = test system: NCI-H460
RXF 393 = test system: RXF 393
CCRF-CEM = test system: CCRF-CEM
EKVX = test system: EKVX
HL-60 = test system: HL-60
RPMI-8226 = test system: RPMI-8226
MOLT-4 = test system: MOLT-4
Hs-578T = test system: Hs-578T
DU-145 = test system: DU-145

Measured: GI50

COc1cc2c(cc1OC)[C@@H]([C@H](O)c1ccccc1)NCC2
inactive: A498 > 100 µM | SK-MEL-28 > 100 µM | A549 > 100 µM | M14 > 100 µM | SF-295 > 100 µM | KM12 > 100 µM | HOP-92 > 74.1 µM | SK-OV-3 > 82.6 µM | OVCAR-5 > 100 µM | ACHN > 100 µM | NCI-H460 > 100 µM | RXF 393 > 100 µM | CCRF-CEM > 100 µM | EKVX > 97.7 µM | HL-60 > 100 µM | RPMI-8226 > 100 µM | MOLT-4 > 100 µM

N#CC(c1ccccc1)c1cccc2ccccc12 (configuration not stated)
inactive: A498 30.4 µM | SK-MEL-28 69.7 µM | Hs-578T 36.7 µM | A549 20.1 µM | M14 30.6 µM | SF-295 46.7 µM | KM12 21.8 µM | DU-145 50.5 µM | OVCAR-5 85.1 µM | ACHN 44.8 µM | NCI-H460 35.8 µM | EKVX 37.8 µM | HL-60 21.1 µM | RPMI-8226 25.7 µM | MOLT-4 17.5 µM

ClCc1ccc(C2OCCO2)cc1
inactive: A498 20.8 µM | SK-MEL-28 > 40.7 µM | A549 > 51.4 µM | M14 13.6 µM | SF-295 17.9 µM | KM12 12.8 µM | HOP-92 18.8 µM | SK-OV-3 46.9 µM | OVCAR-5 > 48.9 µM | ACHN > 42.4 µM | NCI-H460 19.2 µM | RXF 393 > 45.7 µM | CCRF-CEM > 37.7 µM | EKVX > 43.2 µM | HL-60 3.36 µM | RPMI-8226 21.4 µM | MOLT-4 13.8 µM

O=C1Nc2ccccc2N=CC1NC(=O)C(c1ccccc1)c1ccccc1 (configuration not stated)
inactive: A498 > 100 µM | SK-MEL-28 > 100 µM | A549 > 100 µM | M14 > 100 µM | SF-295 > 100 µM | KM12 > 100 µM | HOP-92 32.5 µM | SK-OV-3 > 100 µM | OVCAR-5 > 100 µM | ACHN > 100 µM | NCI-H460 > 100 µM | RXF 393 > 100 µM | CCRF-CEM > 100 µM | EKVX > 100 µM | HL-60 > 100 µM | RPMI-8226 > 100 µM | MOLT-4 79.3 µM

O=C1Nc2cccc3cc(NCC(O)CCl)cc1c23 (configuration not stated)
inactive: SK-MEL-28 > 100 µM | Hs-578T 38 µM | A549 56.9 µM | M14 56.1 µM | SF-295 73.1 µM | KM12 35.2 µM | DU-145 97.5 µM | HOP-92 55.5 µM | SK-OV-3 28.6 µM | OVCAR-5 > 100 µM | ACHN 30.3 µM | NCI-H460 > 100 µM | RXF 393 76.9 µM | CCRF-CEM 22.2 µM | EKVX 32.5 µM | HL-60 > 100 µM | RPMI-8226 > 100 µM | MOLT-4 22.8 µM

O=C(O)CN1C=C(C(=O)c2cc3ccccc3n2S(=O)(=O)c2ccccc2)CCC1
inactive: A498 69.3 µM | SK-MEL-28 > 100 µM | Hs-578T 81.3 µM | A549 68.1 µM | M14 69.8 µM | SF-295 69.5 µM | KM12 37.1 µM | DU-145 > 100 µM | HOP-92 46.9 µM | SK-OV-3 > 10 µM | OVCAR-5 > 100 µM | ACHN 29.6 µM | NCI-H460 96.2 µM | RXF 393 54.5 µM | CCRF-CEM 30.9 µM | EKVX 54.8 µM | HL-60 32.2 µM | MOLT-4 38.5 µM
